Among the test systems are SN12C renal; TK-10 renal; IGROV1 ovarian; COLO 205 colon; U251 CNS; SK-OV-3 ovarian; HCT-15 colon; NCI-H23 lung.
What all share (experiment): inhibition of tumour cell growth, NCI panel, 48 h

“And” between values parts separate entries of the source, which are not always exact repeats. Identical values can stand only once.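 How tested: cells in 96-well plates exposed to compound for 48 hours at five concentrations. GI50: concentration for 50% inhibition of growth. Definition used: TGI = concentration required for complete inhibition of growth.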

For the compound `CCCCCCCCCCCCCCCCOCC(O)CO` (stereo not drawn), the TGI in the assay on SN12C renal was 36.3 µM; with TK-10 renal, 28.9 µM; in the assay with IGROV1 ovarian it was 31.1 µM; in the assay with COLO 205 colon, 50.8 µM; in the assay on U251 CNS, 36.2 µM; in the assay with SK-OV-3 ovarian it was 31.3 µM. The TGI with HCT-15 colon stood at 35.9 µM; in the assay with NCI-H23 lung, 37.2 µM.
For the compound `Cn1cc(NC(=O)Nc2cc(C(=O)Nc3cc(C(=O)Nc4cc(S(=O)(=O)O)c5cc(S(=O)(=O)O)cc(S(=O)(=O)O)c5c4)n(C)c3)n(C)c2)cc1C(=O)Nc1cc(C(=O)Nc2cc(S(=O)(=O)O)c3cc(S(=O)(=O)O)cc(S(=O)(=O)O)c3c2)n(C)c1`, the TGI in the assay with SN12C renal, in the assay with TK-10 renal, with IGROV1 ovarian, in the assay on COLO 205 colon, in the assay with U251 CNS and in the assay on SK-OV-3 ovarian was > 100 µM in each case. Besides, the TGI in the assay on HCT-15 colon and with NCI-H23 lung was > 100 µM throughout.
Turning to `Cn1cc(-c2nc(N[C@@H]3CCCC[C@@H]3N)c(F)c3c2C(=O)NC3)cn1`, the GI50 is 3.61 µM and 3.8 µM in the assay on SN12C renal; 4.5 µM and 6.16 µM in the assay with TK-10 renal; 5 µM and 5.65 µM in the assay with IGROV1 ovarian; 1.41 µM and 1.63 µM in the assay with COLO 205 colon; 15.3 µM in the assay with U251 CNS; 4.06 µM and 3.77 µM with SK-OV-3 ovarian. Also, the GI50 in the assay on HCT-15 colon is 12 µM and 13.3 µM; in the assay with NCI-H23 lung, 5.58 µM and 5.83 µM. Further, the TGI is > 100 µM with SN12C renal; 25.3 µM and 40.6 µM in the assay on TK-10 renal; > 68.9 µM in the assay on IGROV1 ovarian; 3.99 µM and 4.13 µM in the assay with COLO 205 colon; 33.9 µM and 36.3 µM in the assay on U251 CNS; 40.1 µM and 43.8 µM in the assay on SK-OV-3 ovarian. Also, the TGI in the assay with HCT-15 colon is > 100 µM; with NCI-H23 lung, 48.7 µM and > 63.7 µM.
As to `NNC(=O)C(O)C(O)C(=O)NN` (stereo not drawn), the TGI in the assay with SN12C renal, in the assay with TK-10 renal, with IGROV1 ovarian, in the assay on COLO 205 colon, in the assay on U251 CNS and in the assay on SK-OV-3 ovarian was > 100 µM throughout. The TGI in the assay on HCT-15 colon and in the assay with NCI-H23 lung was > 100 µM in each case.
In the case of `COc1cc(Cn2c(-c3ccccc3)cc3c2-c2oncc2CC3)cc(OC)c1`, the GI50 in the assay on SN12C renal was 0.738 µM; with TK-10 renal it was 2.44 µM; in the assay with IGROV1 ovarian, 0.399 µM; in the assay on COLO 205 colon, 0.256 µM; with U251 CNS, 0.427 µM; in the assay on SK-OV-3 ovarian, 0.4 µM. In addition, the values for the GI50 with HCT-15 colon and in the assay with NCI-H23 lung were 0.361 µM and 0.452 µM, respectively. In addition, the TGI is > 100 µM with SN12C renal; > 100 µM with TK-10 renal; > 100 µM in the assay on IGROV1 ovarian; 0.653 µM in the assay on COLO 205 colon; > 100 µM with U251 CNS; > 100 µM with SK-OV-3 ovarian. Also, the TGI in the assay with HCT-15 colon and in the assay on NCI-H23 lung was > 100 µM each time.
Regarding `COc1ccc(C(=O)c2cc3c(N)c(C(=O)Nc4cccc(OC)c4)sc3nc2C)cc1`, the GI50 in the assay on SN12C renal was 0.867 µM; with TK-10 renal, > 100 µM; in the assay with IGROV1 ovarian it was 0.724 µM; in the assay on COLO 205 colon, 1 µM; with U251 CNS, 0.55 µM; with HCT-15 colon it was 0.479 µM. Also, the GI50 in the assay with NCI-H23 lung is 1.7 µM. For the same compound, the TGI with SN12C renal was > 100 µM; in the assay on TK-10 renal, > 100 µM; with IGROV1 ovarian, > 100 µM; in the assay on COLO 205 colon it was > 59 µM; in the assay on U251 CNS, > 100 µM; with SK-OV-3 ovarian it was > 100 µM. Also, the TGI in the assay with HCT-15 colon and with NCI-H23 lung was > 100 µM throughout.
Consider `O=S(=O)(O)SCCNCCCCCC1CCCCC1`, for which the TGI in the assay on SN12C renal was found to be 11.3 µM; in the assay on TK-10 renal, 20.7 µM; with IGROV1 ovarian, 20.7 µM; in the assay with COLO 205 colon, 30.3 µM; in the assay with U251 CNS it was 11.7 µM; in the assay on SK-OV-3 ovarian, 31.2 µM. Further, the TGI in the assay with HCT-15 colon was 24.5 µM; in the assay on NCI-H23 lung it was 27.5 µM.
Turning to `O=Cc1ccc(N2CCN(c3ccc(C=O)cc3)CC2)cc1`, the GI50 in the assay with SN12C renal was > 100 µM; with TK-10 renal, 4.13 µM; in the assay with IGROV1 ovarian, 45.8 µM; with COLO 205 colon, > 100 µM; with U251 CNS, > 100 µM; with SK-OV-3 ovarian, > 100 µM. Besides, the GI50 in the assay with HCT-15 colon and in the assay with NCI-H23 lung was > 100 µM each time. The TGI was > 100 µM in the assay with SN12C renal; 76.8 µM in the assay with TK-10 renal; > 100 µM in the assay with IGROV1 ovarian; > 100 µM in the assay with COLO 205 colon; > 100 µM in the assay on U251 CNS; > 100 µM in the assay on SK-OV-3 ovarian. For the same compound, the TGI in the assay on HCT-15 colon and in the assay with NCI-H23 lung was > 100 µM in each case.
Turning to `Cc1cc2nc3c4ccc(Br)cc4n(CCN(C)C)c3nc2cc1C`, the GI50 with SN12C renal was 1.1 µM; in the assay on TK-10 renal, 1.97 µM; in the assay on IGROV1 ovarian, 1.12 µM; with U251 CNS it was 1.47 µM; in the assay with SK-OV-3 ovarian it was 2.65 µM; in the assay on HCT-15 colon, 0.751 µM. The GI50 in the assay on NCI-H23 lung is 1.5 µM. For the same compound, the TGI was found to be 6.18 µM in the assay on SN12C renal; 7.23 µM with TK-10 renal; 3.97 µM in the assay on IGROV1 ovarian; 4.44 µM with U251 CNS; 12.7 µM in the assay with SK-OV-3 ovarian; 6.24 µM with HCT-15 colon. In the assay with NCI-H23 lung, this compound returned a TGI of 3.47 µM.
On to `O=C(O)CCc1nc(-c2ccccc2-n2cccc2)no1`, for which the TGI in the assay on SN12C renal, in the assay on TK-10 renal, in the assay on IGROV1 ovarian, in the assay with COLO 205 colon, in the assay with U251 CNS and in the assay on SK-OV-3 ovarian was > 100 µM in each case. The TGI with HCT-15 colon and with NCI-H23 lung was > 100 µM throughout.
`CCCCCCCCCCSC(=N)N`: the GI50 with SN12C renal was 5.09 µM; in the assay with TK-10 renal it was 1.61 µM; with IGROV1 ovarian it was 2.85 µM; in the assay with COLO 205 colon it was 1.55 µM; in the assay with U251 CNS, 2.37 µM; in the assay on SK-OV-3 ovarian, 7.38 µM. Further, the GI50 with HCT-15 colon is 2.01 µM; with NCI-H23 lung, 6.38 µM. Also, the TGI with SN12C renal is 18.4 µM; in the assay with TK-10 renal it was 4.09 µM; in the assay on IGROV1 ovarian, 13.3 µM; in the assay on COLO 205 colon it was 2.91 µM; in the assay on U251 CNS, 6.72 µM; in the assay with SK-OV-3 ovarian, 19.9 µM. The TGI is 4.73 µM in the assay with HCT-15 colon and 21.3 µM in the assay on NCI-H23 lung.

Source of the values: PubChem BioAssay (NCI).
